Assay results: PubChem BioAssay (NCI)
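GI50 is the concentration that inhibits growth by half. TGI is the concentration that stops growth completely.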

Tests used:
Test in all cases: growth of human tumour cells (NCI), 384-well format
[1] = test system: SF-539 CNS
[2] = test system: HL-60(TB) leukemia
[3] = test system: MDA-MB-468 breast
[4] = test system: SF-268 CNS
[5] = test system: MCF7 breast
[6] = test system: UACC-257 melanoma
[7] = test system: HCC-2998 colon
[8] = test system: KM12 colon
[9] = test system: UACC-62 melanoma
[10] = test system: U251 glioblastoma
[11] = test system: OVCAR-4 ovarian
[12] = test system: HCT-116 colon
[13] = test system: OVCAR-3 ovarian
[14] = test system: SNB-75 CNS
[15] = test system: SR leukemia
[16] = test system: BT-549 breast
[17] = test system: COLO 205 colon
[18] = test system: MDA-MB-231 breast
[19] = test system: NCI/ADR-RES ovarian
[20] = test system: MALME-3M melanoma
[21] = test system: A549 NSCLC
[22] = test system: SK-MEL-5 melanoma
[23] = test system: RPMI-8226 leukemia
[24] = test system: HS 578T breast
[25] = test system: CAKI-1 renal
[26] = test system: MOLT-4 leukemia
[27] = test system: OVCAR-5 ovarian
[28] = test system: OVCAR-8 ovarian
[29] = test system: M14 melanoma
[30] = test system: SF-295 CNS
[31] = test system: MDA-MB-435 melanoma
[32] = test system: NCI-H322M lung
[33] = test system: SK-OV-3 ovarian
[34] = test system: HOP-62 NSCLC
[35] = test system: SN12C renal
[36] = test system: EKVX NSCLC
[37] = test system: LOX IMVI melanoma
[38] = test system: NCI-H23 lung
[39] = test system: SK-MEL-28 melanoma
[40] = test system: NCI-H460 NSCLC
[41] = test system: NCI-H522 lung

C[C@@H](O)[C@@H](C)Oc1nc(Nc2ccc(S(=N)(=O)C3CC3)cc2)ncc1C(F)(F)F (some centres not stated)
GI50 [1]: 0.0179 µM | TGI [1]: 0.0364 µM | GI50 [2]: < 0.01 µM | TGI [2]: 0.0207 µM | GI50 [3]: 0.0159 µM | TGI [3]: 0.0302 µM | GI50 [4]: 0.0201 µM | TGI [4]: 0.0586 µM | GI50 [5]: 0.0241 µM | TGI [5]: > 100 µM | GI50 [6]: 0.0177 µM | TGI [6]: 0.0372 µM | GI50 [7]: 0.012 µM | TGI [7]: 0.0333 µM | GI50 [8]: 0.0234 µM | TGI [8]: > 100 µM | GI50 [9]: 0.0127 µM | TGI [9]: 0.0279 µM | GI50 [10]: 0.0202 µM | TGI [10]: 0.06 µM | GI50 [11]: 0.0213 µM | TGI [11]: 0.0569 µM | GI50 [12]: 0.0125 µM | TGI [12]: > 100 µM | GI50 [13]: 0.0182 µM | TGI [13]: 0.0439 µM | GI50 [14]: 0.0164 µM | TGI [14]: 0.033 µM | GI50 [15]: < 0.01 µM | TGI [15]: 0.0132 µM | GI50 [16]: 0.0124 µM | TGI [16]: 0.0271 µM | GI50 [17]: 0.0164 µM | TGI [17]: 0.0426 µM | GI50 [18]: 0.0283 µM | TGI [18]: > 100 µM | GI50 [19]: 0.0673 µM | TGI [19]: 0.406 µM | GI50 [20]: 0.0235 µM | TGI [20]: 0.0466 µM | GI50 [21]: 0.0334 µM | TGI [21]: > 100 µM | GI50 [22]: < 0.01 µM | TGI [22]: 0.0215 µM | GI50 [23]: 0.0152 µM | TGI [23]: 0.0289 µM | GI50 [24]: 0.0244 µM | TGI [24]: 0.0628 µM | GI50 [25]: 0.0322 µM | TGI [25]: > 100 µM | GI50 [26]: 0.0202 µM | TGI [26]: 0.035 µM | GI50 [27]: 0.0168 µM | TGI [27]: 0.0545 µM | GI50 [28]: 0.0188 µM | TGI [28]: 0.0737 µM | GI50 [29]: 0.0197 µM | TGI [29]: 0.0852 µM | GI50 [30]: 0.0309 µM | TGI [30]: > 100 µM | GI50 [31]: 0.0233 µM | TGI [31]: 0.0645 µM | GI50 [32]: 0.0212 µM | TGI [32]: 0.0467 µM | GI50 [33]: 0.0417 µM | TGI [33]: > 100 µM | GI50 [34]: 0.0144 µM | TGI [34]: 0.0448 µM | GI50 [35]: 0.0166 µM | TGI [35]: 0.0364 µM | GI50 [36]: 0.0238 µM | TGI [36]: 0.052 µM | GI50 [37]: 0.0146 µM | TGI [37]: 0.0489 µM | GI50 [38]: 0.0171 µM | TGI [38]: 0.0361 µM | GI50 [39]: 0.0164 µM | TGI [39]: 0.0395 µM | GI50 [40]: 0.012 µM | TGI [40]: 0.0285 µM | GI50 [41]: < 0.01 µM | TGI [41]: 0.0249 µM
